Reference: paper PMC8156604, “Development of Phosphodiesterase–Protein-Kinase Complexes as Novel Targets for Discovery of Inhibitors with Enhanced Specificity” (International Journal of Molecular Sciences, 2021)

Assays:
[1] = target: T1, RegA–RD complex (Dictyostelium discoideum, UniProt P05987+Q23917); conditions: cGMP 250 µM added to preformed 2fc-RD–RegA complex
T1 construct: gene pkaR
T1 sequence (P05987 1-327): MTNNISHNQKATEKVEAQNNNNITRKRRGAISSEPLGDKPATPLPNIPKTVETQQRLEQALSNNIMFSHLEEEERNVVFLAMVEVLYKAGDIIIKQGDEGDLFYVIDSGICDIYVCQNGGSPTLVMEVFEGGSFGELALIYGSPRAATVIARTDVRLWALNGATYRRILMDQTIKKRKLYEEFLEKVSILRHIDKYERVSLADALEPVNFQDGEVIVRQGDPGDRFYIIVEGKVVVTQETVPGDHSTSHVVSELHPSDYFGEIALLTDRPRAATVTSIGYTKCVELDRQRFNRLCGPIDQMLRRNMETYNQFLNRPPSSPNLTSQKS
T1 sequence (Q23917 1-793): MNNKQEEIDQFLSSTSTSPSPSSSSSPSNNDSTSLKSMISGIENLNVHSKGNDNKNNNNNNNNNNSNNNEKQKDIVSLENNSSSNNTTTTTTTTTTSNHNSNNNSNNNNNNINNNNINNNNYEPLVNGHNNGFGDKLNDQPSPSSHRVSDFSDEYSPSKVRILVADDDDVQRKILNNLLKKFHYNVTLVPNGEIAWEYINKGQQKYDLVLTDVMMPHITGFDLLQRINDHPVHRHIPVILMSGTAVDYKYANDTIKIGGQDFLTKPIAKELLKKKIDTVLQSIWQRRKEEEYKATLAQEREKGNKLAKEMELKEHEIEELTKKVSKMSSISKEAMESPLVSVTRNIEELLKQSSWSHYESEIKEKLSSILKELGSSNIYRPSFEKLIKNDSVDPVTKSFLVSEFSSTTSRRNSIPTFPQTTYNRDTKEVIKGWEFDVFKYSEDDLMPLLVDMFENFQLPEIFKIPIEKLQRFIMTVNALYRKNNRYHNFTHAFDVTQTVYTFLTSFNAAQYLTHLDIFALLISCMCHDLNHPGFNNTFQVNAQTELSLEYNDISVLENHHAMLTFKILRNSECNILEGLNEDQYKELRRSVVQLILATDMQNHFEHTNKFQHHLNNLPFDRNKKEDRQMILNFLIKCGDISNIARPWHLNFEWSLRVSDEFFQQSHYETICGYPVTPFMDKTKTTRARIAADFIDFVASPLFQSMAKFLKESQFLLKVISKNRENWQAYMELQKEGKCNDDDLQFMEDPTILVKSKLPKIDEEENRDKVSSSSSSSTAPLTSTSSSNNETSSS

[2] = target: T2, PDE5–PKG complex (Homo sapiens, UniProt O76074); conditions: PDE5 with cGMP 100 µM, added to 2fg-PKG
T2 construct: gene PDE5A

## Nc1nc2c(ncn2[C@@H]2O[C@@H]3COP(=O)(O)O[C@H]3[C@H]2O)c(=O)[nH]1 [cGMP]
[1]
  fluorescence polarization, displacement of 2fluo-cAMP: addition of cGMP (lilac plot) resulted in only a partial decrease in FP
[2]
  fluorescence polarization, 2fluo-cGMP-bound PKG probe: suggestive of processive hydrolysis of cGMP by PDE5–PKG composite site
